Source: patent publication US20040043043A1, “Preparation of emulsions and concentrates thereof” (priority 2000, published 2004)

Legend:
[1] = Chemical stability study: vitamin contents on storage at 20 °C/ambient RH; type: physicochemical; details: for Degraded / Content after 18 months / Recovery (initial versus nominal): Example 4 syrup; for Degraded: 18 months at 20 °C/ambient RH, '+' = increase; for Recovery (initial versus nominal): two batches; for Initial content: Example 4 vitamin and mineral syrup
[2] = as above; type: physicochemical; details: Example 1 syrup; for Degraded: 18 months at 20 °C/ambient RH, '+' = increase; for Recovery (initial versus nominal): two batches
Method: A stability study was carried out in order to investigate the chemical stability of the liquid multivitamin product. The product was manufactured according to the protocol set out in Example 1. Two production batches were prepared and subjected to a stability study. The following sampling times were used:
20° C./ambient 0, 3, 6, 12 and 18 months Relative Humidity (RH):
The following results for the vitamin contents after 18 months were obtained for the two production batches respectively at 20° C./ambient RH: […]

Molecule	Degraded [1]	Content after 18 months ([1]; batch 1, 20 °C/ambient RH)	Content after 18 months ([1]; batch 2, 20 °C/ambient RH)	Recovery (initial versus nominal) [1] [%]	Initial content ([1]; batch 1, time 0)	Initial content ([1]; batch 2, time 0)	Degraded [2]	Vitamin content after 18 months ([2]; batch 1, 20 °C/ambient RH)	Vitamin content after 18 months ([2]; batch 2, 20 °C/ambient RH)	Initial vitamin content ([2]; production batch 1, time 0)	Initial vitamin content ([2]; production batch 2, time 0)	Recovery (initial versus nominal) [2] [%]
C=C1CC[C@H](O)C/C1=C/C=C1\CCC[C@]2(C)[C@@H]([C@H](C)CCCC(C)C)CC[C@@H]12 [Cholecalciferol]	+2.5%	519 IU/5 ml	502 IU/5 ml	92.2	502 IU/5 ml	494 IU/5 ml	10%	7.3, 7.3 μg/10 ml	7.3, 7.3 μg/10 ml	8.0 μg/10 ml	8.1 μg/10 ml	97.6
[Zn] [Zinc]	1.2%	8.4 mg/5 ml	8.2 mg/5 ml	102.5	8.2, 8.2 mg/5 ml	8.2, 8.2 mg/5 ml						
O=C(O)CCCC[C@@H]1SC[C@@H]2NC(=O)N[C@@H]21 [Biotin]	9.8%	103 μg/5 ml	100 μg/5 ml	102.3	109 μg/5 ml	116 μg/5 ml						
CC1=C(/C=C/C(C)=C/C=C/C(C)=C/C=C/C=C(C)/C=C/C=C(C)/C=C/C2=C(C)CCCC2(C)C)C(C)(C)CCC1 [Betacaroten]	+6.3%	2315 IU/5 ml	2279 IU/5 ml	110.8	2172 IU/5 ml	2148 IU/5 ml						
O=C1O[C@H]([C@@H](O)CO)C(O)=C1O [Ascorbic acid]	32.8%	35.7 mg/5 ml	34.9 mg/5 ml	93.8	53.0 mg/5 ml	52.0 mg/5 ml	20%	42.8 mg/10 ml	43.6 mg/10 ml	54.4 mg/10 ml	55.3 mg/10 ml	97.4
Cc1c(C)c2c(c(C)c1O)CC[C@@](C)(CCC[C@H](C)CCC[C@H](C)CCCC(C)C)O2 [D-α-tocopherol]	4.0%	12.0 IU/5 ml	11.9 IU/5 ml	103.8	12.5 IU/5 ml	12.4 IU/5 ml	2%	6.1 mg/10 ml	6.2 mg/10 ml	6.2 mg/10 ml	6.3 mg/10 ml	99.2

Results, then the molecule that gave them:

Degraded [1]	Content after 18 months ([1]; batch 1, 20 °C/ambient RH)	Content after 18 months ([1]; batch 2, 20 °C/ambient RH)	Recovery (initial versus nominal) [1] [%]	Initial content ([1]; batch 1, time 0)	Initial content ([1]; batch 2, time 0)	Degraded [2]	Vitamin content after 18 months ([2]; batch 1, 20 °C/ambient RH)	Vitamin content after 18 months ([2]; batch 2, 20 °C/ambient RH)	Initial vitamin content ([2]; production batch 1, time 0)	Initial vitamin content ([2]; production batch 2, time 0)	Recovery (initial versus nominal) [2] [%]	Molecule
4.0%	1.19, 1.19 mg/5 ml	1.19, 1.19 mg/5 ml	93.9	1.25 mg/5 ml	1.23 mg/5 ml	+2%	1.08 mg/10 ml	1.09 mg/10 ml	1.05 mg/10 ml	1.06 mg/10 ml	95.9	Cc1cc2nc3c(=O)[nH]c(=O)nc-3n(C[C@H](O)[C@H](O)[C@H](O)CO)c2cc1C [Riboflavine]
7.9%	1.16, 1.16 mg/5 ml	1.16, 1.16 mg/5 ml	96.9	1.27 mg/5 ml	1.25 mg/5 ml	8%	0.88 mg/10 ml	0.89 mg/10 ml	0.96 mg/10 ml	0.97 mg/10 ml	97.5	Cc1ncc(C[n+]2csc(CCO)c2C)c(N)n1 [Thiamine]
7.9%	255 μg/5 ml	244 μg/5 ml	96.8	276 μg/5 ml	266 μg/5 ml	21%	71.4 μg/10 ml	72.5 μg/10 ml	92.1 μg/10 ml	92.2 μg/10 ml	102.4	Nc1nc2ncc(CNc3ccc(C(=O)N[C@@H](CCC(=O)O)C(=O)O)cc3)nc2c(=O)[nH]1 [Folic acid]
16.7%	9.7 μg/5 ml	9.8 μg/5 ml	104.5	11.6 μg/5 ml	11.8 μg/5 ml							Vitamin B12
11.1%	9.2, 9.2 mg/5 ml	9.2, 9.2 mg/5 ml	101.5	10.4 mg/5 ml	10.3 mg/5 ml	16%	3.6, 3.6 mg/10 ml	3.6, 3.6 mg/10 ml	4.3 mg/10 ml	4.4 mg/10 ml	98.9	CC(C)(CO)[C@@H](O)C(=O)NCCC(=O)O [Pantothenic acid]
+1.1%	0.89 mg/5 ml	0.88 mg/5 ml	99.4	0.88 mg/5 ml	0.87 mg/5 ml	+2%	1.25 mg/10 ml	1.24 mg/10 ml	1.21 mg/10 ml	1.22 mg/10 ml	96.4	Cc1ncc(CO)c(CO)c1O [Pyridoxine]
13%	1869 IU/5 ml	1862 IU/5 ml	110.0	2145, 2145 IU/5 ml	2145, 2145 IU/5 ml	16%	518 μg/10 ml	525 μg/10 ml	623 μg/10 ml	628 μg/10 ml	113	CC1=C(/C=C/C(C)=C/C=C/C(C)=C/CO)C(C)(C)CCC1 [Retinol]
4.7%	18.5 mg/5 ml	18.4 mg/5 ml	100.8	19.5 mg/5 ml	19.2 mg/5 ml	4%	11.6 mg/10 ml	11.9 mg/10 ml	12.2 mg/10 ml	12.3 mg/10 ml	97.2	NC(=O)c1cccnc1 [Nicotinamide]
